What all share (assay type): cell-based, rat
The subject of one experiment is endogenous GABAARs. Briefly: all-optical assay of GABAAR antagonism in primary neuronal culture. The conditions noted are these: ddHTP vs +HTP cells, 15 min, 15 uM GABA. The procedure: (§1) Cultured neuronal assays: Preparation of hippocampal cultures: Mixed glial and neuronal cultures were prepared from the hippocampus of postnatal day 0 to 1 Sprague-Dawley rat pups. Separate pools of dissociated cells were transfected via electroporation (LONZA, V4SP-3096) with plasmid constructs, and depending on assay directives, either plated individually or mixed with a different pool of electroporated cells after a 10 min recovery period. Cells were cultured on coverslips (Deckglaser) pre-treated with high molecular weight poly-D-lysine (Sigma, P7405; 0.05 mg/mL) in 24-well plates and maintained in NbActiv4 (BrainBits, Nb4-500) at 37 C, 5% CO2. Media was changed by half at DIV3 or 4 and then weekly thereafter; experiments were performed between DIV16 to DIV18.
Gabazine: Dissociated neurons were electroporated with constructs and cultured for 2 weeks. The assay was performed in the same BASE solution as described above, but with the addition of synaptic blockers CPP (NMDAR antagonist; Tocris) and NBQX (AMPAR antagonist; Abcam, ab120046) to isolate GABAR activity, and a small amount of GABA (GABAR agonist; Sigma) to ensure GABAR activity (=GABAR-BASE). […] Instead, a high dose of regular gabazine was used to completely silence any cells that may not have had realized full antagonism by the end of the assay. Imaging alignment, proof-reading and analysis were performed in a similar fashion to the AMPAR assay using MatLab.
It was next focused on blocking the GABAAR, a ubiquitous transducer of synaptic inhibition. […] The structure-activity literature of gabazine, a selective GABAAR antagonist, was explored. The core gabazine pharmacophore includes of a 3-amino, 6-phenoxy-pyridazine ring, with GABA embedded in the 2-position (2 butyric acid). Based on historical, low-potency predecessors of gabazine, a longer GABA moiety (2 pentanoic acid), and methyl substituents (e.g., 5-CH3) were explored (FIG. 2F). For each variant, the 6-phenoxy moiety was modified to make a gabazinealkyne module, which was click-conjugated to DART.2. Several variants were made, including gabazine.1^DART.2 (2 butyric acid, 5-H), gabazine.5DART.2 (2 pentanoic acid, 5-H), and gabazine.7DART.2 (2 pentanoic acid, 5-CH3). An all-optical assay of endogenous GABAARs in primary neuronal culture was then developed. […] Excitatory synapses were blocked, such that opto-stimulation with ChR2 became the only source of neural excitation.

The next experiment deals with endogenous GABAAR. In words: all-optical assay of GABAAR positive allosteric modulation in primary neuronal culture. The procedure:
as §1
Diazepam/Flumazenil: Dissociated neurons were electroporated with constructs and cultured for 2 weeks. The assay was performed in a modified GABAR-BASE, with an increased KCl concentration to enhance neuronal excitability and a lowered GABA level for a baseline. Again, a DRUG plate and three DoseGroups were used as described above for dosing, but no final WASH. […] Imaging alignment, proof-reading and analysis were performed in a similar fashion to the GABAR assay using MatLab.
Next it was sought to extend DART to allosteric modulators. The allosteric binding site of the GABAAR, known to bind several drugs, with effects ranging from negative to positive allosteric modulation was first analyzed. Diazepam represents the prototypic PAM at this site, and is the most clinically significant of the class. Thus, a diazepam analog was synthesized with a short alkyne attached to the amide of the diazepam core; an attachment site known to tolerate substituents and thought from structural inspection of the GABAAR-bound diazepam pose to allow linker access to free solution. Click chemistry was used to assemble the full-length diazepam.1DART.2 and leveraged an all-optical assay of endogenous GABAARs in primary neuronal culture, with ChR2 and GCaMP6s in the same cell.

In experiment [1] the target is T1, HaloTag Protein (HTP) on +HTP neurons (Rhodococcus rhodochrous, UniProt P0A3G2, A155T/A167V/A172T/A224E/C128F/C176G/D78G/E160K/E257K/H272N/K175M/K195N/L47V/L88M/N227D/S58T/T264A/Y273L/Y87F).
T1 construct: SSnlg signal peptide (residues 1-49 of mouse neuroligin-1) (N); ERXL (Kir2.1 trafficking and ER export signals); expressed in transfected cells; host or cells: primary rat hippocampal neurons, electroporated with plasmid
Briefly: biotin-HTL capture dose-response on +HTP cultured neurons. The note with it: EC 50 (nM), concentration for half-maximal capture on +HTP neurons following 15 minutes of incubation. The method, then: as §1
For any given neuronal assay, coverslips were first washed briefly in a resting BASE solution containing (in mM): 4 KCl, 2 CaCl2), 2 MgCl2, 150 NaCl, 10 HEPES, 10 glucose, pH 7.4, before transfer to a glass-bottom, 24-well imaging plate (Cellvis, P24-1.5H—N). Live cell imaging was performed on an Olympus IX83 inverted fluorescent microscope (10× objective, […].) with LED illumination for GFP (Excitation=485 nm), TR (Ex=560 nm), Cy5/Alexa647 (Ex=640 nm) and Cy7/AlexaFluor750 (Cy7=740 nm) depending on the specific assay directives.
biotin-HTL: Dissociated neurons were electroporated with either the +HTP or ddHTP construct and cultured as described above. A dilution series for both the biotin-PEG12-HTL.1 and biotin-PEG12-HTL.2 compounds was made in BASE solution containing 1% BSA (Sigma A7904), representing 12 final concentrations (in uM) between 10 and 0.001. After a brief rinse in BASE+BSA to acclimate the live neurons to room temperature and avoid temperature effects to the binding kinetics, a single coverslip was incubated in one of the twelve dilutions for 15 min, washed twice in BASE+BSA, then incubated in a 1:500 dilution of Streptavidin-AlexaFluor488 (Invitrogen) for 15 min. The neurons were rinsed four times then transferred to a glass-bottom imaging plate containing BASE+BSA. Each coverslip was imaged in its entirety by combining several 10× images (TR at 10 ms; GFP at 100 ms) together using the Olympus CellSens software stitching algorithm. A dose-response curve was created from the individual coverslips using MatLab.
To enable direct quantification of capture efficiency, commercially available HTL (i.e., HTL.1) were conjugated to biotin via a flexible polyethylene glycol linker of moderate length (PEG12), to mimic the longer (PEG36) linker typically used in an RxDART. Capture kinetics were characterized on cultured neurons expressing HTP on their surface [HTPNLG(432-648), as in, to model the cellular microenvironment of interest. Dose-response curves were performed by incubating neuronal coverslips with a given ligand for 15 min, followed by washing, fluorescent labeling of biotin, and quantification of capture. […] Thus, it was reasoned that improving HTL50 would widen the DW for any Rx cargo.

T1 sequence (P0A3G2 other isoform, or with tags, fused parts or gaps with the stated changes): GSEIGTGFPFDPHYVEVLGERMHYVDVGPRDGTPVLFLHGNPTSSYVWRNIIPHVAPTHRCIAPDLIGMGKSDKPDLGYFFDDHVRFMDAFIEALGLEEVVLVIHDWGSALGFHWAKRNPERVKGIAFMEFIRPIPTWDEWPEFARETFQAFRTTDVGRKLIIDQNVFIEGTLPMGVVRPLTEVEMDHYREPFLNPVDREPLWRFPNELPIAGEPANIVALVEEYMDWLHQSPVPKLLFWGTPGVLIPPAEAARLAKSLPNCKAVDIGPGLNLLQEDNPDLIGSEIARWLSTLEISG

Turning to `COc1cc(CCCCl)ccc1CCOCCNC(=O)c1ccc(CNC(=O)CCOCCOCCOCCOCCOCCOCCOCCOCCOCCOCCOCCOCCOCCOCCOCCOCCOCCOCCOCCOCCOCCOCCOCCOCCOCCOCCOCCOCCOCCOCCOCCOCCOCCOCCOCCOCCn2cc(COCCOCCOCCOCCOCCOCCOCCCCCCOc3ccc(-c4ccc(=N)n(CCCCC(=O)O)n4)cc3)nn2)cc1` [gabazine.5^DART.2], the “DW (t=15 m)” value in the experiment with endogenous GABAARs is given as 1,500. As to `CCOC(=O)c1ncn2c1CN(C)C(=O)c1cc(F)ccc1-2` [flumazenil, reference compound], the GABAAR receptor modulation result in the experiment on endogenous GABAAR is “no receptor modulation”. For `O=C(CCCC[C@@H]1SC[C@@H]2NC(=O)N[C@@H]21)NCCOCCOCCOCCOCCOCCOCCOCCOCCOCCOCCOCCOCCC(=O)NCc1ccc(C(=O)NCCCCOc2ccc(CCCCCl)cc2O)cc1`, a half-maximal effect in experiment [1] (EC50) was put at 30 nM.

For the compound `COc1cc(CCCCCCl)ccc1CCOCCNC(=O)c1ccc(CNC(=O)CCOCCOCCOCCOCCOCCOCCOCCOCCOCCOCCOCCOCCNC(=O)CCCC[C@@H]2SC[C@@H]3NC(=O)N[C@@H]32)cc1`, the 50% effective concentration (EC50) (usually the concentration that produces a half-maximal response) in experiment [1] is 4000 nM.

Consider `COc1cc(CCCCl)ccc1CC(=O)NCCNC(=O)c1ccc(CNC(=O)CCOCCOCCOCCOCCOCCOCCOCCOCCOCCOCCOCCOCCNC(=O)CCCC[C@@H]2SC[C@@H]3NC(=O)N[C@@H]32)cc1`, for which a half-maximal effect in experiment [1] (EC50) was put at 20000 nM. Still for that read-out and setting: then `COc1cc(CCCCl)ccc1CCOCCNC(=O)c1ccc(CNC(=O)CCOCCOCCOCCOCCOCCOCCOCCOCCOCCOCCOCCOCCNC(=O)CCCC[C@@H]2SC[C@@H]3NC(=O)N[C@@H]32)cc1`, with 10 nM; and `COc1cc(CCCCl)ccc1C(=O)NCCCNC(=O)c1ccc(CNC(=O)CCOCCOCCOCCOCCOCCOCCOCCOCCOCCOCCOCCOCCNC(=O)CCCC[C@@H]2SC[C@@H]3NC(=O)N[C@@H]32)cc1` [drawing 135], with 200 nM; and `COc1cc(CCCCI)ccc1OCCCCNC(=O)c1ccc(CNC(=O)CCOCCOCCOCCOCCOCCOCCOCCOCCOCCOCCOCCOCCNC(=O)CCCC[C@@H]2SC[C@@H]3NC(=O)N[C@@H]32)cc1`, with 30 nM. On the same count and under the same terms, the figure for `Nc1cc(CCCCCl)ccc1OCCCCNC(=O)c1ccc(CNC(=O)CCOCCOCCOCCOCCOCCOCCOCCOCCOCCOCCOCCOCCNC(=O)CCCC[C@H]2SC[C@H]3NC(=O)N[C@H]32)cc1` is 70 nM. As to `CN1C(=O)CN=C(c2ccccc2)c2cc(Cl)ccc21` [diazepam, reference compound], the “effect on +HTP vs ddHTP cells” value with endogenous GABAAR (traditional (non-DART) version) is on record as “equally affected”. Turning to `COc1cc(/C=C/CCCl)ccc1CCOCCNC(=O)c1ccc(CNC(=O)CCOCCOCCOCCOCCOCCOCCOCCOCCOCCOCCOCCOCCNC(=O)CCCC[C@@H]2SC[C@@H]3NC(=O)N[C@@H]32)cc1`, the EC50 in experiment [1] was 20 nM. Consider `O=C(CCCC[C@H]1SC[C@H]2NC(=O)N[C@H]21)NCCOCCOCCOCCOCCOCCOCCOCCOCCOCCOCCOCCOCCC(=O)NCc1ccc(C(=O)NCCCCOc2ccc(CCCCCl)cc2F)cc1`, for which, in experiment [1], the EC50 was 45 nM. On the same count and under the same terms, the figure for `O=C(CCCC[C@H]1SC[C@H]2NC(=O)N[C@H]21)NCCOCCOCCOCCOCCOCCOCCOCCOCCOCCOCCOCCOCCC(=O)NCc1ccc(C(=O)NCCCCOc2ccc(CCCCCl)cc2)cc1` is 110 nM. `O=C(CCCC[C@@H]1SC[C@@H]2NC(=O)N[C@@H]21)NCCOCCOCCOCCOCCOCCOCCOCCOCCOCCOCCOCCOCCC(=O)NCc1ccc(C(=O)NCCOCCOCCCCCCCl)cc1`: the EC50 in experiment [1] was 150 nM. Still for that read-out and setting: then `COc1cc(CCCCBr)ccc1OCCCCNC(=O)c1ccc(CNC(=O)CCOCCOCCOCCOCCOCCOCCOCCOCCOCCOCCOCCOCCNC(=O)CCCC[C@@H]2SC[C@@H]3NC(=O)N[C@@H]32)cc1`, with 30 nM; and `O=C(CCCC[C@@H]1SC[C@@H]2NC(=O)N[C@@H]21)NCCOCCOCCOCCOCCOCCOCCOCCOCCOCCOCCOCCOCCC(=O)NCc1ccc(C(=O)NCCCCOc2ccc(CCCCCl)cc2Cl)cc1`, with 100 nM; and `COc1cc(CCCCl)ccc1OCCCCNC(=O)c1ccc(CNC(=O)CCOCCOCCOCCOCCOCCOCCOCCOCCOCCOCCOCCOCCNC(=O)CCCC[C@@H]2SC[C@@H]3NC(=O)N[C@@H]32)cc1`, with 50 nM.

Take `COc1cc(CCCCl)ccc1C(=O)NCCCNC(=O)c1ccc(CNC(=O)CCOCCOCCOCCOCCOCCOCCOCCOCCOCCOCCOCCOCCNC(=O)CCCC[C@@H]2SC[C@@H]3NC(=O)N[C@@H]32)cc1` [drawing 134]: the EC50 in experiment [1] was 280 nM. Same read-out and setting: the figure for `COc1cc(CCCCl)ccc1C(=O)NCCCNC(=O)c1ccc(CNC(=O)CCOCCOCCOCCOCCOCCOCCOCCOCCOCCOCCOCCOCCNC(=O)CCCC[C@@H]2SC[C@@H]3NC(=O)N[C@@H]32)cc1` [drawing 133] is 200 nM; for `COc1cc(CCCCCl)ccc1CCOCCNC(=O)c1ccc(CNC(=O)CCOCCOCCOCCOCCOCCOCCOCCOCCOCCOCCOCCOCCNC(=O)CCCC[C@@H]2SC[C@@H]3NC(=O)N[C@@H]32)cc1` it is 30 nM; for `O=C(CCCC[C@@H]1SC[C@@H]2NC(=O)N[C@@H]21)NCCOCCOCCOCCOCCOCCOCCOCCOCCOCCOCCOCCOCCC(=O)NCc1ccc(C(=O)NCCCCOc2ccc(CCCCCl)cc2OC(F)(F)F)cc1` it is 1500 nM. Still for that read-out and setting: then `O=C(CCCC[C@@H]1SC[C@@H]2NC(=O)N[C@@H]21)NCCOCCOCCOCCOCCOCCOCCOCCOCCOCCOCCOCCOCCC(=O)NCCOCCOCCCCCCCl`, with 1000 nM; and `COc1c(/C=C\CCCl)cccc1OCCCCNC(=O)c1ccc(CNC(=O)CCOCCOCCOCCOCCOCCOCCOCCOCCOCCOCCOCCOCCNC(=O)CCCC[C@@H]2SC[C@@H]3NC(=O)N[C@@H]32)cc1`, with 55 nM. On the same count and under the same terms, then `CCOc1cc(CCCCCl)ccc1OCCCCNC(=O)c1ccc(CNC(=O)CCOCCOCCOCCOCCOCCOCCOCCOCCOCCOCCOCCOCCNC(=O)CCCC[C@@H]2SC[C@@H]3NC(=O)N[C@@H]32)cc1`, with 70 nM.

Source of the values: patent US20250213700A1, “COMPOUNDS, COMPOSITIONS, AND METHODS FOR CELL-SPECIFIC PHARMACOLOGY” (Duke University, priority 2022, published 2025).
